The target of this assay is HCV RdRp (NS5B) (UniProt P26663). Type of assay: biochemical, hepatitis C virus.

Each structure is given as a SMILES string.

The values that follow come from patent US20070021434A1, “NON-NUCLEOSIDE ANTI-HEPACIVIRUS AGENTS AND USES THEREOF” (Migenix Inc., priority 2005, published 2007).

By IC50 is commonly meant the concentration that gives 50% inhibition. High values mean a need for much substance, low ones inhibition by little substance.

HCV RdRp (NS5B), sequence (P26663 whole entry, looked up): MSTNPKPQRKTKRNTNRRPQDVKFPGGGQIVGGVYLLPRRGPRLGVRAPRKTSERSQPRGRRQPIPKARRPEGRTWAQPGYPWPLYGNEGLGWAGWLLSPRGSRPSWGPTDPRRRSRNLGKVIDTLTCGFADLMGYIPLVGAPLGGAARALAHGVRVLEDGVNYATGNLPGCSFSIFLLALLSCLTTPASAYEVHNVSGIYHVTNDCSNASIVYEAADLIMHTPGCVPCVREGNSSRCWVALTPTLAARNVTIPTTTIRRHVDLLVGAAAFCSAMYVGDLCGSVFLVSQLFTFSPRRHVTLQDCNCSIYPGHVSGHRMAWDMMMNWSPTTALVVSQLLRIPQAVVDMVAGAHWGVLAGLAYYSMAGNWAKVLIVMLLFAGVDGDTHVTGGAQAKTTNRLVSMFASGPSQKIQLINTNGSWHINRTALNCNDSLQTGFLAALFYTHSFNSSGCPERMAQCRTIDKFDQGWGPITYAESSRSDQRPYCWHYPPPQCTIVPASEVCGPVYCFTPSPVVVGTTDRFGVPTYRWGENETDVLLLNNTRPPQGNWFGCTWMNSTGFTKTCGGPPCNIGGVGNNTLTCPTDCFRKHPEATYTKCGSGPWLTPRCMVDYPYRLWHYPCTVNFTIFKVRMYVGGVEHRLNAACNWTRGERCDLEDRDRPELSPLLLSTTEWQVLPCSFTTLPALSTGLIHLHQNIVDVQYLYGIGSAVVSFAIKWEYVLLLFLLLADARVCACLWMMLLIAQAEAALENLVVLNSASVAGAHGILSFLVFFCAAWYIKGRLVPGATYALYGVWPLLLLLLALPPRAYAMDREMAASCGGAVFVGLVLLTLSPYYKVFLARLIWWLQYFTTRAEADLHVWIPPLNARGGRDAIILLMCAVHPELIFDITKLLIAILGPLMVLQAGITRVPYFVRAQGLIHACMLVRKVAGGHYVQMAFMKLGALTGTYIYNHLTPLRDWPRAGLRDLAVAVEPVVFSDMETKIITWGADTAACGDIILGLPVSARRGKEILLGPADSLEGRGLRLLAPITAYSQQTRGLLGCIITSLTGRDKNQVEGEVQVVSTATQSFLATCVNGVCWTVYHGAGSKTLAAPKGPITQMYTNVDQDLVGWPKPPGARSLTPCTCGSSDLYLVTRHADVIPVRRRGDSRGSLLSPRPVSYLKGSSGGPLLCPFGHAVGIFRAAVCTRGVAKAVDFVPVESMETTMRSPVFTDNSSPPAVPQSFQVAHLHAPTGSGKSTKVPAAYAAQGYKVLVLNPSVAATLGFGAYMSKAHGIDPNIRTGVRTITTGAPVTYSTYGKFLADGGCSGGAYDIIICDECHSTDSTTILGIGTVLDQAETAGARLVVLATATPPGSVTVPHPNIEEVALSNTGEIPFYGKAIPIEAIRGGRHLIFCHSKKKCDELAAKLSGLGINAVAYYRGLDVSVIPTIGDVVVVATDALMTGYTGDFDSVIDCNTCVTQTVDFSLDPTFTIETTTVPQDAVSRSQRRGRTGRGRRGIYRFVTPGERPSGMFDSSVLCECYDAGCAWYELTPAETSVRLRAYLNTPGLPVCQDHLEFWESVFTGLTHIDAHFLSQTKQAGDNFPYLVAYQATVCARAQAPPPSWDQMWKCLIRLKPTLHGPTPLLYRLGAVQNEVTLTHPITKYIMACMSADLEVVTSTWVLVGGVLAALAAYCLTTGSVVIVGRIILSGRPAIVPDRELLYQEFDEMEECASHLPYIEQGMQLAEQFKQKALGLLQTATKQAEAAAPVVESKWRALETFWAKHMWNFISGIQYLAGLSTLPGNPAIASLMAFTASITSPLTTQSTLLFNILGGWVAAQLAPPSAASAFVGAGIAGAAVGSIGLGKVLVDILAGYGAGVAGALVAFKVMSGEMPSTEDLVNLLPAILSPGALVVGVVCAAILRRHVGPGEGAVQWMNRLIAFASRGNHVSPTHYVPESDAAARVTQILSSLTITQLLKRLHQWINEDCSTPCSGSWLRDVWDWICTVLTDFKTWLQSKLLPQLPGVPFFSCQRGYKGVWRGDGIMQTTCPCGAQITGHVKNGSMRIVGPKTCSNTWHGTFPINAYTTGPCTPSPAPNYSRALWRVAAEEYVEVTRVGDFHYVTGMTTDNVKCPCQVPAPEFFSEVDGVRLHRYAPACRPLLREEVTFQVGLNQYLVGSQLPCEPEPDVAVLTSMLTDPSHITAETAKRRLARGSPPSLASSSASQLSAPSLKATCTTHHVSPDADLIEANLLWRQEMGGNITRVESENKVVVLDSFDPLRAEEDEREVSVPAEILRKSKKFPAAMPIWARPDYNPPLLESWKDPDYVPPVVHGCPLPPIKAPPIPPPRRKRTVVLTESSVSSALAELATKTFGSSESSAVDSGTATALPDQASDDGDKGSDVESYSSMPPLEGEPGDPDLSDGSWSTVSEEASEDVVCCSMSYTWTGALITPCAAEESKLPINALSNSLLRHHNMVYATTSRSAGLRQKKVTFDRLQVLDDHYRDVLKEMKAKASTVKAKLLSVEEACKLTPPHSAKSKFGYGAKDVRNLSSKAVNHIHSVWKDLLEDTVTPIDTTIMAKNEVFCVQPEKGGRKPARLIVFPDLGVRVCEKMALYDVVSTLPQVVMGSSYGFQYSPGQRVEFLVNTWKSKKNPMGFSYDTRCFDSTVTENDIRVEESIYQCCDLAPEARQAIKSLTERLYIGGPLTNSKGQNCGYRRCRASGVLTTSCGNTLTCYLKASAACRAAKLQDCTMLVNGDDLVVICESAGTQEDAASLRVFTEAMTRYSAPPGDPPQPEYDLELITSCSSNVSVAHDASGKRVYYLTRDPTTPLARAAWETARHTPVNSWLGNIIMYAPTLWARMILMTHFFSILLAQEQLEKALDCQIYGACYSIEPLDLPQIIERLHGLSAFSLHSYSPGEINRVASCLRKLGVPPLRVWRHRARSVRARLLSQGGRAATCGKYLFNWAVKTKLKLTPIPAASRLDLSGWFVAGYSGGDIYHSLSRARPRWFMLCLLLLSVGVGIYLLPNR

Compound `Cc1ccc(NC(=O)C(CCCCN)NC(=O)c2c(C)ccc3ccccc23)cc1` [Compound 63, (S)-2-METHYL-NAPHTHALENE-1-CARBOXYLIC ACID (5-AMINO-1-P-TOLYLCARBAMOYL-PENTYL)-AMIDE] came in with a half-inhibitory concentration (IC50) of over 50 µM.
Compound `Cc1ccc(NC(=O)[C@H](CCCCN)NC(=O)CNC2Cc3ccccc3C2)cc1` [Compound 336, (S)-6-AMINO-2-[2-(INDAN-2-YLAMINO)-ACETYLAMINO]-HEXANOIC ACID P-TOLYLAMIDE] returned an IC50 of over 50 µM.
Compound `Cc1ccc(NC(=O)[C@H](CCCCN)NC(=O)Nc2ccc(OCc3cccnc3)cc2)cc1` [Compound 261, (S)-6-AMINO-2-{3-[4-(PYRIDIN-3-YLMETHOXY)-PHENYL]-UREIDO}-HEXANOIC ACID P-TOLYLAMIDE] gave an IC50 of over 50 µM.
`NCCCCC(NC(=O)OCC1c2ccccc2-c2ccccc21)C(=O)Nc1ccccc1` (stereo in doubt) [Compound 19, (S)-(5-AMINO-1-PHENYLCARBAMOYL-PENTYL)-CARBAMIC ACID 9H-FLUOREN-9-YLMETHYL ESTER] yielded an IC50 of over 50 µM.
As for `Cc1ccc(NC(=O)[C@H](CCCCN)NC(=O)Nc2cccc(Oc3ccccc3)c2)cc1` [Compound 98, (S)-6-AMINO-2-[3-(3-PHENOXY-PHENYL)-UREIDO]-HEXANOIC ACID P-TOLYLAMIDE], the figure is over 50 µM.
As for `COC(=O)c1ccc(C(=O)NC(C)(C)C(=O)Nc2ccc(CN(C(=O)c3ccco3)C3CCCCC3)cc2)cc1` [Compound 3, N-[1-(4-{[CYCLOHEXYL-(FURAN-2-CARBONYL)-AMINO]-METHYL}-PHENYLCARBAMOYL)-1-METHYL-ETHYL]-TERE[…] METHYL ESTER], the figure is over 50 µM.
Compound `NCCCC[C@H](NC(=O)c1cccc2ccccc12)C(=O)Nc1ccc(CN(C(=O)c2ccco2)C2CCCCC2)cc1` [Compound 24, (S)-FURAN-2-CARBOXYLIC ACID (4-{6-AMINO-2-[(NAPHTHALENE-1-CARBONYL)-AMINO]-HEXANOYLAMINO}-BENZYL)-CYCLOHEXYL-AMIDE] returned an IC50 of 10 to 50 µM.
To `NCCCC[C@H](NC(=O)OCC1c2ccccc2-c2ccccc21)C(=O)N(Cc1ccccc1)C1CCCCC1` [Compound 33, (S)-[5-AMINO-1-(BENZYL-CYCLOHEXYL-CARBAMOYL)-PENTYL]-CARBAMIC ACID 9H-FLUOREN-9-YLMETHYL ESTER] belongs 10 to 50 µM; to `Cc1ccc(NC(=O)CN(CCCCN)C(=O)Nc2ccc(OCc3ccccc3)cc2)cc1` [Compound 278, 2-[1-(4-AMINO-BUTYL)-3-(4-BENZYLOXY-PHENYL)-UREIDO]-N-P-TOLYL-ACETAMIDE], 10 to 50 µM; to `NCCCC[C@@H](NC(=O)Nc1cccc2ccccc12)C(=O)Nc1ccc(CN(C(=O)c2ccco2)C2CCCCC2)cc1` [Compound 32, (R)-FURAN-2-CARBOXYLIC ACID {4-[6-AMINO-2-(3-NAPHTHALEN-1-YL-UREIDO)-HEXANOYLAMINO]-BENZYL}-CYCLOHEXYL-AMIDE], over 50 µM.
As for `C[C@H](N)C(=O)Nc1ccc(CN(C(=O)c2ccco2)C2CCCCC2)cc1` [Compound 12, (S)-FURAN-2-CARBOXYLIC ACID [4-(2-AMINO-PROPIONYLAMINO)-BENZYL]-CYCLOHEXYL-AMIDE], the half-maximal inhibitory concentration (IC50) was over 50 µM.
As for `Cc1ccc(NC(=O)[C@H](CCCCN)NS(=O)(=O)c2cccc3nonc23)cc1` [Compound 398, (S)-6-AMINO-2-(BENZO[1,2,5]OXADIAZOLE-4-SULFONYLAMINO)-HEXANOIC ACID P-TOLYLAMIDE], the figure is over 50 µM.
As for `Cc1ccc(NC(=O)C(CCCCN)NC(=O)c2ccc(C)c3ccccc23)cc1` [Compound 62, (S)-4-METHYL-NAPHTHALENE-1-CARBOXYLIC ACID (5-AMINO-1-P-TOLYLCARBAMOYL-PENTYL)-AMIDE], the figure is over 50 µM; as for `Cc1cc2cc(NC(=O)[C@H](CCCCNC(=O)CN)NC(=O)Nc3ccc4c(c3)Cc3ccccc3-4)ccc2[nH]1` [Compound 298, (S)-6-(2-AMINO-ACETYLAMINO)-2-[3-(9H-FLUOREN-2-YL)-UREIDO]-HEXANOIC ACID (2-METHYL-1H-INDOL-5-YL)-AMIDE], over 50 µM; as for `NCCCCN(CC(=O)Nc1ccc(C2CCCCC2)cc1)C(=O)Nc1ccc(OCc2ccccc2)cc1` [Compound 323, 2-[1-(4-AMINO-BUTYL)-3-(4-BENZYLOXY-PHENYL)-UREIDO]-N-(4-CYCLOHEXYL-PHENYL)-ACETAMIDE], over 50 µM.
`Cc1ccc(NC(=O)[C@H](CCCCN)NS(=O)(=O)c2cccc3ccccc23)cc1` [Compound 68, (S)-6-AMINO-2-(NAPHTHALENE-1-SULFONYLAMINO)-HEXANOIC ACID P-TOLYLAMIDE] gave an IC50 of over 50 µM.
As for `COc1ccccc1NCC(=O)N[C@@H](CCCCN)C(=O)Nc1ccc(C)cc1` [Compound 357, (S)-6-AMINO-2-[2-(2-METHOXY-PHENYLAMINO)-ACETYLAMINO]-HEXANOIC ACID P-TOLYLAMIDE], the figure is over 50 µM.
Take `NCCCC[C@H](NC(=O)OCC1c2ccccc2-c2ccccc21)C(=O)NCCc1c[nH]c2ccccc12` [Compound 57, (S)-{5-AMINO-1-[2-(1H-INDOL-3-YL)-ETHYLCARBAMOYL]-PENTYL}-CARBAMIC ACID 9H-FLUOREN-9-YLMETHYL ESTER]: the half-maximal inhibitory concentration (IC50) is over 50 µM.
As for `Cc1ccc(NC(=O)[C@H](CCCCN)NC(=O)Nc2ccc(OCc3ccc(F)cc3F)cc2)cc1` [Compound 285, (S)-6-AMINO-2-{3-[4-(2,4-DIFLUORO-BENZYLOXY)-PHENYL]-UREIDO}-HEXANOIC ACID P-TOLYLAMIDE], the figure is 10 to 50 µM; as for `Cc1ccc(NC(=O)C(CCCC(=O)O)NC(=O)OCC2c3ccccc3-c3ccccc32)cc1` [Compound 402, (S)-5-(9H-FLUOREN-9-YLMETHOXYCARBONYLAMINO)-5-P-TOLYLCARBAMOYL-PENTANOIC ACID], over 50 µM.
To `Cc1ccc(NC(=O)C2CC(OC(=O)CCN)CN2C(=O)OCC2c3ccccc3-c3ccccc32)cc1` [Compound 130, (S)-(4-(R)-(3-AMINO-PROPIONYLOXY)-2-P-TOLYLCARBAMOYL-PYRROLIDINE-1-CARBOXYLIC ACID 9H-FLUOREN-9-YLMETHYL ESTER)] belongs over 50 µM.
As for `Cc1ccc(NC(=O)C(CCCCN)NC(=O)NCc2ccccc2)cc1` [Compound 168, (R)-6-AMINO-2-(3-BENZYL-UREIDO)-HEXANOIC ACID P-TOLYLAMIDE], the figure is over 50 µM; as for `Cc1cc2cc(NC(=O)[C@H](CCCCNC(=O)CN)NC(=O)OCC3c4ccccc4-c4ccccc43)ccc2[nH]1` [Compound 233, (S)-[5-(2-AMINO-ACETYLAMINO)-1-(2-METHYL-1H-INDOL-5-YLCARBAMOYL)-PENTYL]-CARBAMIC ACID 9H-FLUOREN-9-YLMETHYL ESTER], under 10 µM.
For `CNCC(=O)NCCCC(NC(=O)OCC1c2ccccc2-c2ccccc21)C(=O)Nc1ccc(C)cc1` [Compound 223, (S)-[4-(2-METHYLAMINO-ACETYLAMINO)-1-P-TOLYLCARBAMOYL-BUTYL]-CARBAMIC ACID 9H-FLUOREN-9-YLMETHYL ESTER], the IC50 was in the range of 10 to 50 µM.
To `Cc1ccc(NC(=O)[C@H](CCCCN)NC(=O)CNCc2ccc(Cl)cc2)cc1` [Compound 349, (S)-6-AMINO-2-[2-(4-CHLORO-BENZYLAMINO)-ACETYLAMINO]-HEXANOIC ACID P-TOLYLAMIDE] belongs over 50 µM; to `CC(=O)NCCCCC(NC(=O)OCC1c2ccccc2-c2ccccc21)C(=O)Nc1ccc(C)cc1` [Compound 181, (S)-(5-ACETYLAMINO-1-P-TOLYLCARBAMOYL-PENTYL)-CARBAMIC ACID 9H-FLUOREN-9-YLMETHYL ESTER], over 50 µM.
As for `O=C(CC1CNCCN1C(=O)NCc1ccc(Cl)c(Cl)c1)Nc1ccc(C2CCCCC2)cc1` (centres unmarked) [Compound 160, 2-[(4-CYCLOHEXYL-PHENYLCARBAMOYL)-METHYL]-PIPERAZINE-1-CARBOXYLIC ACID 3,4-DICHLORO-BENZYLAMIDE], the figure is 10 to 50 µM.
As for `NCCCC[C@H](NC(=O)OCC1c2ccccc2-c2ccccc21)C(=O)Nc1ccc2[nH]ncc2c1` [Compound 82, (S)-[5-AMINO-1-(1H-INDAZOL-5-YLCARBAMOYL)-PENTYL]-CARBAMIC ACID 9H-FLUOREN-9-YLMETHYL ESTER], the figure is over 50 µM; as for `NCCCC[C@H](NC(=O)Cn1cnc2c(NC(=O)c3ccccc3)ncnc21)C(=O)Nc1ccc(CN(C(=O)c2ccco2)C2CCCCC2)cc1` [Compound 46, (S)-FURAN-2-CARBOXYLIC ACID (4-{6-AMINO-2-[2-(6-BENZOYLAMINO-PURIN-9-YL)-ACETYLAMINO]-HEXANOYLAMINO}-BENZYL)-CYCLOHEXYL-AMIDE], 10 to 50 µM; as for `Cc1ccc(NC(=O)C(CNC(=O)CNC(=O)CN)NC(=O)OCC2c3ccccc3-c3ccccc32)cc1` [Compound 222, (S)-{2-[2-(2-AMINO-ACETYLAMINO)-ACETYLAMINO]-1-P-TOLYLCARBAMOYL-ETHYL}-CARBAMIC ACID 9H-FLUOREN-9-YLMETHYL ESTER], 10 to 50 µM.
Regarding `Cc1ccc(COc2ccc(NC(=O)NC(CCCCN)C(=O)Nc3ccc(C)cc3)cc2)cc1` [Compound 301, (S)-6-AMINO-2-{3-[4-(4-METHYL-BENZYLOXY)-PHENYL]-UREIDO}-HEXANOIC ACID P-TOLYLAMIDE], the IC50 was over 50 µM.
In turn, `Cc1ccc(NC(=O)[C@H](CCCCN)NS(=O)(=O)c2ccc(C)cc2)cc1` [Compound 396, (S)-6-AMINO-2-(TOLUENE-4-SULFONYLAMINO)-HEXANOIC ACID P-TOLYLAMIDE] showed a concentration for half-maximal inhibition (IC50) of over 50 µM.
To `Cc1ccc(NC(=O)C(CCN)NC(=O)OCC2c3ccccc3-c3ccccc32)cc1` [Compound 400, (R)-(3-AMINO-1-P-TOLYLCARBAMOYL-PROPYL)-CARBAMIC ACID 9H-FLUOREN-9-YLMETHYL ESTER] belongs over 50 µM; to `Cc1ccc(NC(=O)C(Cc2ccc(CN)cc2)NC(=O)OCC2c3ccccc3-c3ccccc32)cc1` [Compound 175, (R)-[2-(4-AMINOMETHYL-PHENYL)-1-P-TOLYLCARBAMOYL-ETHYL]-CARBAMIC ACID 9H-FLUOREN-9-YLMETHYL ESTER], under 10 µM; to `COc1ccc(NC(=O)[C@H](CCCCN)NC(=O)OCC2c3ccccc3-c3ccccc32)cc1` [Compound 83, (S)-[5-AMINO-1-(4-METHOXY-PHENYLCARBAMOYL)-PENTYL]-CARBAMIC ACID 9H-FLUOREN-9-YLMETHYL ESTER], 10 to 50 µM.
